Results as given in ChEMBL document CHEMBL1201862, “PubChem BioAssay data set” (2004).
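Cells were grown in 96-well plates and exposed to each compound for 48 hours at five concentrations; endpoints were interpolated linearly between bracketing concentrations, or set to the highest concentration if not reached. GI50 = concentration required for 50% inhibition of growth.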 Activity calls are given as the source filed them. Cut-off read from the data, not from the text of the source: active = GI50 up to about 1.1 µM and inactive = higher.

Tests used:
Assay in all cases: growth of human tumour cells (NCI), 48 h
Malme-3M = test system: Malme-3M
COLO 205 = test system: COLO 205
NCI-H23 = test system: NCI-H23
M14 = test system: M14
SN12C = test system: SN12C
HCT-116 = test system: HCT-116
SNB-75 = test system: SNB-75
EKVX = test system: EKVX
NCI-H226 = test system: NCI-H226
MDA-MB-231 = test system: MDA-MB-231
786-0 = test system: 786-0
HOP-62 = test system: HOP-62
A549 = test system: A549
SF-539 = test system: SF-539
HOP-92 = test system: HOP-92
OVCAR-4 = test system: OVCAR-4
HL-60 = test system: HL-60
RPMI-8226 = test system: RPMI-8226
SK-MEL-28 = test system: SK-MEL-28
NCI-H460 = test system: NCI-H460
SF-295 = test system: SF-295
SK-MEL-2 = test system: SK-MEL-2
HT-29 = test system: HT-29
MCF7 = test system: MCF7
SF-268 = test system: SF-268
OVCAR-8 = test system: OVCAR-8
LOX IMVI = test system: LOX IMVI
KM12 = test system: KM12
CAKI-1 = test system: CAKI-1
IGROV-1 = test system: IGROV-1
BT-549 = test system: BT-549
OVCAR-5 = test system: OVCAR-5
HCT-15 = test system: HCT-15
NCI/ADR-RES = test system: NCI/ADR-RES
U-251 = test system: U-251
MOLT-4 = test system: MOLT-4
DU-145 = test system: DU-145
NCI-H522 = test system: NCI-H522
CCRF-CEM = test system: CCRF-CEM
K562 = test system: K562
UACC-257 = test system: UACC-257
SK-MEL-5 = test system: SK-MEL-5
SW-620 = test system: SW-620
PC-3 = test system: PC-3
ACHN = test system: ACHN
MDA-MB-435 = test system: MDA-MB-435
SR = test system: SR
SNB-19 = test system: SNB-19
TK-10 = test system: TK-10
T47D = test system: T47D
SK-OV-3 = test system: SK-OV-3
UACC-62 = test system: UACC-62
RXF 393 = test system: RXF 393

`C=CCCC1(O)C(O)C(CO)O[C@H](O[C@@]2(CO)OC(CO)C(O)C2O)C1O` (some centres not stated) was tested, and the GI50 (Malme-3M) was > 100 µM (inactive), the GI50 (COLO 205) was > 100 µM (inactive) and the GI50 (NCI-H23) was > 100 µM (inactive). For the same compound, the GI50 (M14) was > 100 µM (inactive), the GI50 (SN12C) was > 100 µM (inactive) and the GI50 (HCT-116) was > 100 µM (inactive). For the same compound, the GI50 (SNB-75) was > 100 µM (inactive), the GI50 (EKVX) was > 100 µM (inactive) and the GI50 (NCI-H226) was > 100 µM (inactive). For the same compound, the GI50 (MDA-MB-231) was > 100 µM (inactive), the GI50 (786-0) was > 100 µM (inactive) and the GI50 (HOP-62) was > 100 µM (inactive). For the same compound, the GI50 (A549) was > 100 µM (inactive), the GI50 (SF-539) was > 100 µM (inactive) and the GI50 (HOP-92) was > 100 µM (inactive). For the same compound, the GI50 (OVCAR-4) was > 100 µM (inactive), the GI50 (HL-60) was > 100 µM (inactive) and the GI50 (RPMI-8226) was > 100 µM (inactive). For the same compound, the GI50 (SK-MEL-28) was > 100 µM (inactive), the GI50 (NCI-H460) was > 100 µM (inactive) and the GI50 (SF-295) was > 100 µM (inactive). For the same compound, the GI50 (SK-MEL-2) was > 10 µM (inactive), the GI50 (HT-29) was > 100 µM (inactive) and the GI50 (MCF7) was > 100 µM (inactive). For the same compound, the GI50 (SF-268) was > 100 µM (inactive), the GI50 (OVCAR-8) was > 100 µM (inactive) and the GI50 (LOX IMVI) was > 100 µM (inactive). The GI50 (KM12) was > 100 µM (inactive), the GI50 (CAKI-1) was > 100 µM (inactive) and the GI50 (IGROV-1) was > 100 µM (inactive). The GI50 (BT-549) was > 100 µM (inactive), the GI50 (OVCAR-5) was > 100 µM (inactive) and the GI50 (HCT-15) was greater than 100 µM. For the same compound, the GI50 (NCI/ADR-RES) was > 100 µM (inactive), the GI50 (U-251) was > 100 µM (inactive) and the GI50 (MOLT-4) was > 100 µM (inactive). For the same compound, the GI50 (DU-145) was > 100 µM (inactive), the GI50 (NCI-H522) was > 100 µM (inactive) and the GI50 (CCRF-CEM) was > 100 µM (inactive). The GI50 (K562) was > 100 µM (inactive), the GI50 (UACC-257) was > 100 µM (inactive) and the GI50 (SK-MEL-5) was > 100 µM (inactive). The GI50 (SW-620) was > 100 µM (inactive), the GI50 (PC-3) was > 100 µM (inactive) and the GI50 (ACHN) was > 100 µM (inactive). The GI50 (MDA-MB-435) was > 100 µM (inactive), the GI50 (SR) was > 100 µM (inactive) and the GI50 (SNB-19) was > 100 µM (inactive). For the same compound, the GI50 (TK-10) was > 100 µM (inactive).
With `O=C1c2ccccc2-c2nnc(-c3ccccc3)cc21` the GI50 (T47D) was 4.48 µM (inactive), the GI50 (Malme-3M) was > 10 µM (inactive) and the GI50 (COLO 205) was > 10 µM (inactive). The GI50 (NCI-H23) was > 10 µM (inactive), the GI50 (M14) was > 10 µM (inactive) and the GI50 (SNB-75) was > 10 µM (inactive). The GI50 (786-0) was > 10 µM (inactive), the GI50 (HOP-62) was > 10 µM (inactive) and the GI50 (A549) was > 10 µM (inactive). The GI50 (OVCAR-4) was > 10 µM (inactive), the GI50 (HL-60) was 5.05 µM (inactive) and the GI50 (RPMI-8226) was > 10 µM (inactive). For the same compound, the GI50 (SK-MEL-28) was > 10 µM (inactive), the GI50 (NCI-H460) was > 10 µM (inactive) and the GI50 (SK-OV-3) was > 10 µM (inactive). The GI50 (SK-MEL-2) was > 10 µM (inactive), the GI50 (UACC-62) was > 10 µM (inactive) and the GI50 (MCF7) was 3.37 µM (inactive). For the same compound, the GI50 (SF-268) was > 10 µM (inactive), the GI50 (RXF 393) was > 10 µM (inactive) and the GI50 (CAKI-1) was > 10 µM (inactive). The GI50 (IGROV-1) was > 10 µM (inactive), the GI50 (OVCAR-5) was > 10 µM (inactive) and the GI50 (NCI/ADR-RES) was > 10 µM (inactive). The GI50 (U-251) was > 10 µM (inactive), the GI50 (MOLT-4) was 3.01 µM (inactive) and the GI50 (CCRF-CEM) was 3.25 µM (inactive). For the same compound, the GI50 (K562) was 3.61 µM (inactive), the GI50 (SK-MEL-5) was > 10 µM (inactive) and the GI50 (SW-620) was 7.6 µM (inactive). The GI50 (ACHN) was > 10 µM (inactive), the GI50 (MDA-MB-435) was > 10 µM (inactive) and the GI50 (SR) was 3.83 µM (inactive).
